Reference: patent US20230339871A1, “COMPOUNDS AND METHODS OF MODULATING 17B-HYDROXYSTEROID DEHYDROGENASE TYPE 13” (METREA BIOSCIENCES, INC., priority 2020, published 2023)

Target: T1, recombinant human full-length HSD17B13 protein (Homo sapiens, UniProt Q7Z5P4)
T1 construct: recombinant human full-length HSD17B13 protein; 6xHis (C); made in house; host or cells: HEK293E-253/FH
T1 sequence (Q7Z5P4 20-300): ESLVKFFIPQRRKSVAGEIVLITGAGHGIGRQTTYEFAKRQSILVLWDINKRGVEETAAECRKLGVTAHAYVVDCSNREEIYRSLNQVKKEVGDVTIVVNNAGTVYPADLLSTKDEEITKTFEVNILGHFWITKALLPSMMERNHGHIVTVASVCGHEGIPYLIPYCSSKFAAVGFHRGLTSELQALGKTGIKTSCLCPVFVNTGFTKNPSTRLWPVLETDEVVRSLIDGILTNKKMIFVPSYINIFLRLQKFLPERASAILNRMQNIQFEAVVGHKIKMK
Experiment: HSD17B13 96 luminescence inhibition assay (NAD(P)H-Glo)
Assay type: biochemical
Method: Compounds of the present disclosure were tested for inhibition of HSD17B13 using the following protocol. Briefly, recombinant human full-length HSD17B13 protein with a 6X-C-terminal His tag was expressed in cell line HEK293E-253/FH and purified using Ni^2+-affinity purification. Enzymatic activity was determined through the production of NADH using the NAD(P)H-Glo Detection System (Promega). The inhibitory activity of test compounds was determined in reactions performed at 30° C. in assay buffer consisting of 25 mM EPPS (8.0), 125 mM NaCl, 0.03% Triton X-100, 0.03% BSA, with […] steroid substrate (1,3,5(10), 7-estratetraen-3, 17b-diol (Steraloids E0580)) added from a 2.5 mM DMSO stock and 500 mM NAD. The final percentage of DMSO was 4.5%. After a one-hour incubation, a 20% volume of luciferase Glo-reagent was added and light units captured on a Victor V Plate Reader (Perkin Elmer).
Concentration-response curves for inhibitors were normalized to control samples containing enzyme only (negative control) and sample without enzyme (positive control). 50% inhibition (IC50) values were determined using a nonlinear least squares fit of the data to a four-parameter equation using Prism 6.0 (GraphPad Software, San Diego).

Row | Compound | IC50
1 | O=C(NCc1cccc(O)c1)c1cc2cc(O)c(F)cc2cn1 [Compound 26, 7-fluoro-6-hydroxy-N-(3-hydroxybenzyl)isoquinoline-3-carboxamide] | > 5 µM
2 | NC(=O)c1cccc(CN2C(=O)S/C(=C\c3ccc(F)c(O)c3)C2=O)c1 [Compound 18, (Z)-3-((5-(4-fluoro-3-hydroxybenzylidene)-2,4-dioxothiazolidin-3-yl)methyl) benzamide] | 1 to 5 µM
3 | O=C1S/C(=C\c2cc(F)c(F)c(O)c2F)C(=O)N1Cc1cccc(O)c1 [Compound 3, (Z)-3(3-hydroxybenzyl)-5-(2,4,5-trifluoro-3-hydroxybenzylidene)thiazolidine-2,4-dione] | 1 to 5 µM
4 | O=C1S/C(=C\c2ccc(F)c(O)c2)C(=O)N1Cc1cc(O)cc(F)c1 [Compound 9, (Z)-5-(4-fluoro-3-hydroxybenzylidene)-3-(3-fluoro-5-hydroxybenzyl)thiazolidine-2,4-dione] | 1 to 5 µM
5 | O=C1S/C(=C\c2ccc(F)c(O)c2)C(=O)N1Cc1ccc(F)c(F)c1 [Compound 2, (Z)-3-(3,4-difluorobenzyl)-5-(4-fluoro-3-hydroxybenzylidene)thiazolidine-2,4-dione] | 1 to 5 µM
6 | O=C1S/C(=C\c2ccc(F)c(O)c2)C(=O)N1Cc1cc(O)ccc1F [Compound 8, (Z)-5-(4-fluoro-3-hydroxybenzylidene)-3-(2-fluoro-5-hydroxybenzyl)thiazolidine-2,4-dione] | 1 to 5 µM
7 | CS(=O)(=O)Nc1cccc(CN2C(=O)S/C(=C\c3ccc(F)c(O)c3)C2=O)c1 [Compound 20, N-(3-{[(5Z)-5-[(4-fluoro-3-hydroxyphenyl)methylidene]-2,4-dioxo-1,3-thiazolidin-3-yl]methyl}phenyl)methanesulfonamide] | > 5 µM
8 | O=C1S/C(=C\c2ccc(F)c(O)c2)C(=O)N1Cc1cccc(O)c1 [Compound 11, (Z)-5-(4-fluoro-3-hydroxybenzylidene)-3-(3-hydroxybenzyl)thiazolidine-2,4-dione] | 1 to 5 µM
9 | O=C(c1ccc(F)c(O)c1)c1ccc(-c2ccc(F)c(O)c2F)s1 [Compound 28, (5-(2,4-difluoro-3-hydroxyphenyl)thiophen-2-yl)(4-fluoro-3-hydroxyphenyl) methanone] | 1 to 5 µM
10 | O=C1S/C(=C\c2ccc(F)c(O)c2)C(=O)N1Cc1cccc(-c2c[nH]nn2)c1 [Compound 15, (Z)-3-(3-(1H-1,2,3-triazol-4-yl)benzyl)-5-(4-fluoro-3-hydroxybenzylidene) thiazolidine-2,4-dione] | 1 to 5 µM
11 | N#Cc1cccc(CN2C(=O)S/C(=C\c3ccc(F)c(O)c3)C2=O)c1 [Compound 19, (Z)-3-((5-(4-fluoro-3-hydroxybenzylidene)-2,4-dioxothiazolidin-3-yl)methyl) benzonitrile] | 1 to 5 µM
12 | O=C1S/C(=C\c2c(F)ccc(O)c2F)C(=O)N1Cc1cccc(O)c1 [Compound 37, (Z)-5-(2,6-difluoro-3-hydroxybenzylidene)-3-(3-hydroxybenzyl)thiazolidine-2,4-dione] | > 5 µM
13 | COc1cccc(CNC(=O)c2ccc3cc(F)c(O)c(F)c3n2)c1 [Compound 39, 6,8-difluoro-7-hydroxy-N-[(3-methoxyphenyl)methyl]quinoline-2-carboxamide] | 1 to 5 µM
14 | O=C1S/C(=C\c2c(F)cc(F)c(O)c2F)C(=O)N1Cc1cc[nH]c(=O)c1 [Compound 36, (Z)-3-((2-oxo-1,2-dihydropyridin-4-yl)methyl)-5-(2,4,6-trifluoro-3-hydroxybenzylidene)thiazolidine-2,4-dione] | 1 to 5 µM
15 | O=C1S/C(=C\c2ccc(F)c(O)c2F)C(=O)N1Cc1cccc(O)c1 [Compound 6, (Z)-5(2,4-difluoro-3-hydroxybenzylidene)-3-(3-hydroxybenzyl)thiazolidine-2,4-dione] | 1 to 5 µM
16 | N#Cc1cccc(CNC(=O)c2ccc3cc(F)c(O)cc3n2)c1 [Compound 27, N-(3-cyanobenzyl)-6-fluoro-7-hydroxyquinoline-2-carboxamide] | > 5 µM
17 | O=C1S/C(=C\c2ccc(F)c(O)c2)C(=O)N1Cc1cccc(C(F)(F)F)c1 [Compound 17, (Z)-5-(4-fluoro-3-hydroxybenzylidene)-3-(3-(trifluoromethyl)benzyl)thiazolidine-2,4-dione] | 1 to 5 µM
18 | COc1ccc(CN2C(=O)S/C(=C\c3c(F)cc(F)c(O)c3F)C2=O)cn1 [Compound 23, (Z)-3-((6-methoxypyridin-3-yl)methyl)-5-(2,4,6-trifluoro-3-hydroxybenzylidene)thiazolidine-2,4-dione] | 1 to 5 µM

Row | Compound | IC50
19 | O=C(c1ccc(-c2ccc(F)c(O)c2F)s1)c1ccc(F)c(O)c1F [Compound 32, (2,4-difluoro-3-hydroxyphenyl)(5-(2,4-difluoro-3-hydroxyphenyl)thiophen-2-yl)methanone] | 1 to 5 µM
20 | O=C(c1ccc(-c2ccc(F)c(O)c2F)s1)c1cc(F)c(F)c(O)c1F [Compound 31, (5-(2,4-difluoro-3-hydroxyphenyl)thiophen-2-yl)(2,4,5-trifluoro-3-hydroxyphenyl) methanone] | 1 to 5 µM
21 | O=C1S/C(=C\c2ccc(F)c(O)c2)C(=O)N1Cc1cccc(OC(F)(F)F)c1 [Compound 16, (Z)-5-(4-fluoro-3-hydroxybenzylidene)-3-(3-(trifluoromethoxy)benzyl) thiazolidine-2,4-dione] | > 5 µM
22 | O=C1S/C(=C\c2cc(O)c(F)c(F)c2)C(=O)N1Cc1cccc(O)c1 [Compound 7, (5Z)-5-[(3,4-difluoro-5-hydroxyphenyl)methylidene]-3-[(3-hydroxyphenyl)methyl]-1,3-thiazolidine-2,4-dione] | 1 to 5 µM
23 | O=C(NCc1cccc(-c2nnn[nH]2)c1)c1ccc2cc(F)c(O)cc2n1 [Compound 25, N-(3-(1H-tetrazol-5-yl)benzyl)-6-fluoro-7-hydroxyquinoline-2-carboxamide] | > 5 µM
24 | CS(=O)(=O)c1cccc(CN2C(=O)S/C(=C\c3ccc(F)c(O)c3)C2=O)c1 [Compound 12, (Z)-5-(4-fluoro-3-hydroxybenzylidene)-3-(3-(methylsulfonyl)benzyl)thiazolidine-2,4-dione] | 1 to 5 µM
25 | O=C1S/C(=C\c2c(F)cc(F)c(O)c2F)C(=O)N1Cc1ccc(=O)[nH]c1 [Compound 35, (5Z)-3-[(6-oxo-1,6-dihydropyridin-3-yl)methyl]-5-[(2,4,6-trifluoro-3-hydroxyphenyl)methylidene]-1,3-thiazolidine-2,4-dione] | ≤ 1 µM
26 | NS(=O)(=O)c1cccc(CN2C(=O)S/C(=C\c3c(F)cc(F)c(O)c3F)C2=O)c1 [Compound 34, (Z)-3-((2,4-dioxo-5-(2,4,6-trifluoro-3-hydroxybenzylidene)thiazolidin-3-yl)methyl)benzenesulfonamide] | ≤ 1 µM
27 | O=C1S/C(=C\c2ccc(F)c(O)c2)C(=O)N1CC1CCOCC1 [Compound 14, (Z)-5-(4-fluoro-3-hydroxybenzylidene)-3-((tetrahydro-2H-pyran-4-yl)methyl)thiazolidine-2,4-dione] | > 5 µM
28 | O=C(c1ccc(-c2ccc(F)c(O)c2F)s1)c1c(F)cc(F)c(O)c1F [Compound 29, (5-(2,4-difluoro-3-hydroxyphenyl)thiophen-2-yl)(2,4,6-trifluoro-3-hydroxyphenyl)methanone] | 1 to 5 µM
29 | O=C1O/C(=C\c2ccc(F)c(O)c2)C(=O)N1Cc1cccc(O)c1 [Compound 10, (Z)-5-(4-fluoro-3-hydroxybenzylidene)-3-(3-hydroxybenzyl)oxazolidine-2,4-dione] | > 5 µM
30 | O=C1S/C(=C\c2ccc3nn[nH]c3c2)C(=O)N1Cc1cccc(O)c1 [Compound 38, (Z)-5-((1H-benzo[d][1,2,3]triazol-6-yl)methylene)-3-(3-hydroxybenzyl)thiazolidine-2,4-dione] | ≤ 1 µM
31 | COc1cc(CN2C(=O)S/C(=C\c3c(F)cc(F)c(O)c3F)C2=O)ccn1 [Compound 22, (Z)-3-((2-methoxypyridin-4-yl)methyl)-5-(2,4,6-trifluoro-3-hydroxybenzylidene) thiazolidine-2,4-dione] | ≤ 1 µM
32 | O=C1S/C(=C\c2c(F)cc(F)c(O)c2F)C(=O)N1Cc1cccc(O)c1 [Compound 4, (Z)-3-(3-hydroxybenzyl)-5-(2,4,6-trifluoro-3-hydroxybenzylidene)thiazolidine-2,4-dione] | 1 to 5 µM
33 | O=C1O/C(=C\c2ccc(F)c(O)c2)C(=O)N1CC1CCOCC1 [Compound 13, (Z)-5-(4-fluoro-3-hydroxybenzylidene)-3-((tetrahydro-2H-pyran-4-yl)methyl) oxazolidine-2,4-dione] | 1 to 5 µM
34 | O=C(c1cc(O)c(F)c(F)c1)c1ccc(-c2ccc(F)c(O)c2F)s1 [Compound 30, (5-(2,4-difluoro-3-hydroxyphenyl)thiophen-2-yl)(3,4-difluoro-5-hydroxyphenyl) methanone] | 1 to 5 µM
35 | NS(=O)(=O)c1cccc(CN2C(=O)S/C(=C\c3ccc(F)c(O)c3)C2=O)c1 [Compound 33, (Z)-3-((5-(4-fluoro-3-hydroxybenzylidene)-2,4-dioxothiazolidin-3-yl)methyl) benzenesulfonamide] | ≤ 1 µM
